Data set [1] has as its system Staphylococcus aureus. The experiment in a line: Antibacterial activity against Staphylococcus aureus ATCC 25923 incubated for 18 to 24 hrs by broth microdilution method. The format is functional.
For data set [2], the system named is Staphylococcus aureus. Kind of data set: Antibacterial activity against Staphylococcus aureus ATCC 29213 incubated for 18 to 24 hrs by broth microdilution method. The format is functional. In general terms: In broth dilution the organism is exposed to a series of concentrations in liquid medium.
Data set [3] concerns Salmonella typhimurium. Kind of data set: Antibacterial activity against Salmonella enterica serovar typhimurium C77-31 incubated for 18 to 24 hrs by broth microdilution method. The format is functional, Salmonella enterica subsp. enterica serovar Typhimurium.
The test system of data set [4] is Escherichia coli. The experiment in a line: Antibacterial activity against Escherichia coli UB1005 incubated for 18 to 24 hrs by broth microdilution method. The format is functional.
The subject of data set [5] is Escherichia coli. The experiment in a line: Antibacterial activity against Escherichia coli ATCC 25922 incubated for 18 to 24 hrs by broth microdilution method. Type of data set: functional.
Data set [6] relates to Staphylococcus epidermidis. The experiment in a line: Antibacterial activity against Staphylococcus epidermidis ATCC 12228 incubated for 18 to 24 hrs by broth microdilution method. Type of data set: functional.
The subject of data set [7] is Escherichia coli. The experiment in a line: Antibacterial activity against Escherichia coli 20411 clinical isolate incubated for 18 to 24 hrs by broth microdilution method. Type of data set: functional.
Data set [8] concerns Acinetobacter baumannii. Kind of data set: Antibacterial activity against Acinetobacter baumannii AB1901 clinical isolate incubated for 18 to 24 hrs by broth microdilution method. Type of data set: functional.
Data set [9] has as its system Acinetobacter baumannii. The experiment in a line: Antibacterial activity against Acinetobacter baumannii AB1902 clinical isolate incubated for 18 to 24 hrs by broth microdilution method. The format is functional.
The test system of data set [10] is Pseudomonas aeruginosa. The experiment in a line: Antibacterial activity against Pseudomonas aeruginosa 25349 clinical isolate incubated for 18 to 24 hrs by broth microdilution method. The format is functional.
Data set [11] concerns Staphylococcus aureus. The experiment in a line: Antibacterial activity against Staphylococcus aureus 11011 incubated for 18 to 24 hrs by broth microdilution method. Type of data set: functional.
In data set [12] the test system is Erythrocyte. Kind of data set: Haemolytic activity in human erythrocytes assessed as lowest concentration causing 5% hemolysis after 1 hr. Type of data set: ADME, cell-based.
The nature of data set [13]: Therapeutic index, ratio of MHC for human RBC to geometric mean of peptide MIC for Escherichia coli ATCC 25922. The format is toxicity. Particulars: pooled result: one value given for 6 cell lines, strains, targets or settings, read-out: TI.
Data set [14] can be described thus: Cytotoxicity against mouse RAW264.7 cells assessed as cell survival at < 32 uM after 24 hrs by MTT assay. The format is cell-based. To be noted: read-out: Activity. (Tetrazolium assays rely on reduction of a dye to a coloured formazan, in cell work by metabolically active cells.)

We go through four compounds from ChEMBL document CHEMBL4311942, “Design of Trp-Rich Dodecapeptides with Broad-Spectrum Antimicrobial Potency and Membrane-Disruptive Mechanism” (J Med Chem, 2019).

SMILES strings stand for the structures. Converted amounts (≈) assume the structure as drawn. Where a SMILES comes first, the peptide text is derived from it.

Regarding `CC[C@H](C)[C@H](NC(=O)[C@H](CCCCN)NC(=O)[C@H](Cc1c[nH]c2ccccc12)NC(=O)[C@H](CCCCN)NC(=O)[C@@H](NC(=O)[C@H](CCCCN)NC(=O)[C@H](Cc1c[nH]c2ccccc12)NC(=O)[C@H](CCCCN)NC(=O)[C@@H](NC(=O)[C@H](CCCCN)NC(=O)[C@@H](N)Cc1c[nH]c2ccccc12)[C@@H](C)CC)[C@@H](C)CC)C(=O)N[C@@H](CCCCN)C(N)=O` (H-WKIKWKIKWKIK-NH2), the MIC in data set [1], in data set [2], in data set [3], in data set [4], in data set [5] and in [6] was 2 µM (≈ 3.37 µg/mL) each time. Besides, the MIC in [7] was 2 µM (≈ 3.37 µg/mL); in [8], 1 µM (≈ 1.68 µg/mL); in data set [9], 2 µM (≈ 3.37 µg/mL); in data set [10], 4 µM (≈ 6.74 µg/mL); in [11], 2 µM (≈ 3.37 µg/mL). The MHC in [12] stood at 64 µM. The selectivity ratio in data set [13] amounted to 32. Also, the viability at 24 h in data set [14] is greater than 90%.

As to `CC(C)C[C@H](NC(=O)[C@H](CCCCN)NC(=O)[C@H](Cc1c[nH]c2ccccc12)NC(=O)[C@H](CCCCN)NC(=O)[C@H](CC(C)C)NC(=O)[C@H](CCCCN)NC(=O)[C@H](Cc1c[nH]c2ccccc12)NC(=O)[C@H](CCCCN)NC(=O)[C@H](CC(C)C)NC(=O)[C@H](CCCCN)NC(=O)[C@@H](N)Cc1c[nH]c2ccccc12)C(=O)N[C@@H](CCCCN)C(N)=O` (H-WKLKWKLKWKLK-NH2), the MIC in [1] is 2 µM (≈ 3.37 µg/mL); in [2], 2 µM (≈ 3.37 µg/mL); in data set [3], 2 µM (≈ 3.37 µg/mL); in data set [4] it was 4 µM (≈ 6.74 µg/mL); in [5], 4 µM (≈ 6.74 µg/mL); in [6], 2 µM (≈ 3.37 µg/mL). Moreover, the minimal inhibitory concentration (MIC) in data set [7] came out at 2 µM (≈ 3.37 µg/mL); in [8] it was 2 µM (≈ 3.37 µg/mL); in data set [9], 4 µM (≈ 6.74 µg/mL); in data set [10], 4 µM (≈ 6.74 µg/mL); in [11] it was 2 µM (≈ 3.37 µg/mL). Also, the MHC in [12] amounted to 128 µM. In data set [13], the selectivity ratio was found to be 50.8. Moreover, the viability at 24 h in [14] was greater than 90%.

Consider `CC[C@H]1OC(=O)[C@H](C)[C@@H](O[C@H]2C[C@@](C)(OC)[C@@H](O)[C@H](C)O2)[C@H](C)[C@@H](O[C@@H]2O[C@H](C)C[C@H](N(C)C)[C@H]2O)[C@](C)(O)C[C@@H](C)C(=O)[C@H](C)[C@@H](O)[C@]1(C)O` [ERYTHROMYCIN], for which the MIC in [1] was found to be 0.5 µM (≈ 0.367 µg/mL); in [2], 0.5 µM (≈ 0.367 µg/mL); in [3] it was 32 µM (≈ 23.5 µg/mL); in data set [4] it was 32 µM (≈ 23.5 µg/mL); in data set [5], 32 µM (≈ 23.5 µg/mL); in data set [6], 0.25 µM (≈ 0.183 µg/mL). The MIC in data set [7] was 64 µM (≈ 47 µg/mL); in data set [8], greater than 128 µM; in data set [9] it was greater than 128 µM; in data set [10], 128 µM (≈ 93.9 µg/mL); in [11], 1 µM (≈ 0.734 µg/mL).

For `CN[C@H](CC(C)C)C(=O)N[C@H]1C(=O)N[C@@H](CC(N)=O)C(=O)N[C@H]2C(=O)N[C@H]3C(=O)N[C@H](C(=O)N[C@H](C(=O)O)c4cc(O)cc(O)c4-c4cc3ccc4O)[C@H](O)c3ccc(c(Cl)c3)Oc3cc2cc(c3O[C@@H]2O[C@H](CO)[C@@H](O)[C@H](O)[C@H]2O[C@H]2C[C@](C)(N)[C@H](O)[C@H](C)O2)Oc2ccc(cc2Cl)[C@H]1O` [VANCOMYCIN], the MIC in data set [1] came out at 0.5 µM (≈ 0.725 µg/mL); in data set [2], 0.5 µM (≈ 0.725 µg/mL); in data set [3], 128 µM (≈ 186 µg/mL); in [4], 128 µM (≈ 186 µg/mL); in data set [5], 128 µM (≈ 186 µg/mL); in data set [6], 0.5 µM (≈ 0.725 µg/mL). Moreover, the MIC in data set [7] is 64 µM (≈ 92.8 µg/mL); in [8], greater than 128 µM; in [9], greater than 128 µM; in data set [10] it was greater than 128 µM; in data set [11], 0.25 µM (≈ 0.362 µg/mL).

The term MIC denotes the least concentration at which growth counts as inhibited. Read a low MIC as a more susceptible organism.
